Laboratory results: publication PMC5656517 (European journal of pharmaceutical sciences : official …, 2017)

What was measured:
cytochrome P450 enzymes = experiment: Single concentration; conditions: 10 µM, 9 isoforms
CYP2B6 [1] = biological target: T1, CYP2B6 (Homo sapiens, UniProt P20813); experiment: Single concentration; type: in vitro ADME; conditions: human liver microsomes
T1 sequence (P20813 1-491): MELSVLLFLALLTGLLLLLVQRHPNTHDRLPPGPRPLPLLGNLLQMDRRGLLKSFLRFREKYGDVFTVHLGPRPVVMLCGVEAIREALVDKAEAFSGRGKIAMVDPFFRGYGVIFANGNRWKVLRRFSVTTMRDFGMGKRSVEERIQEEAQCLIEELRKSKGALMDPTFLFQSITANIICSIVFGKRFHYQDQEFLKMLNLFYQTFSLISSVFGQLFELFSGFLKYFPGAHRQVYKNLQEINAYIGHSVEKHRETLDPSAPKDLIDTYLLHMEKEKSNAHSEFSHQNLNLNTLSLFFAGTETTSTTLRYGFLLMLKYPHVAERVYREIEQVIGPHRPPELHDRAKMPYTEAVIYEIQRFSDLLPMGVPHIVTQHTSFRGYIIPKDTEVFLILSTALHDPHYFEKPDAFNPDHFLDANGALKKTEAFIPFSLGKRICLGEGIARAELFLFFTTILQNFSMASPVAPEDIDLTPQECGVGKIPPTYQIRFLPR

CYP2D6 = CYP2D6 (Homo sapiens, UniProt P10635); experiment: Single concentration; type: in vitro ADME; conditions: human liver microsomes
CYP2D6, sequence (P10635 whole entry, canonical isoform): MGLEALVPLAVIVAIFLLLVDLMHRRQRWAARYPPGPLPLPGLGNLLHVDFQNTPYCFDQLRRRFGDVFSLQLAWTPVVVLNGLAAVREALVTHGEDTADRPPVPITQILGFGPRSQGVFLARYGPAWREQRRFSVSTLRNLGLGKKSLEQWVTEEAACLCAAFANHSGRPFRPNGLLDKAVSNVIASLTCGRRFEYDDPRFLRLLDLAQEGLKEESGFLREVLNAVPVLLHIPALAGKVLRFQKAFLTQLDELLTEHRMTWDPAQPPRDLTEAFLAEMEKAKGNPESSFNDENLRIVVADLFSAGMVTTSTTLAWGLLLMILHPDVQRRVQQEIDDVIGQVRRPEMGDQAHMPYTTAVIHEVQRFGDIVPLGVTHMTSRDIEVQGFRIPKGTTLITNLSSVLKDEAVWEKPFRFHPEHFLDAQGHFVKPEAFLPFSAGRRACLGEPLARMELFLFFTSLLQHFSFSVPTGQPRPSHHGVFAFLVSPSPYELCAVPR

[2] = system: one or more cytochrome P450 enzymes (CYP1A2, 2A6, 2B6, 2C8, 2C9, 2C19, 2D6, 2E1, 3A4); isoform not specified per value; experiment: in vitro; conditions: human, pH 7.4
CYP2C = experiment: Single concentration; type: in vitro ADME; conditions: human liver microsomes
CYP3A4 [3] = biological target: T2, CYP3A4 (Homo sapiens, UniProt P08684); conditions: recombinant enzymes; ref Kent et al., (2002); cited from earlier work
T2 sequence (P08684 whole entry): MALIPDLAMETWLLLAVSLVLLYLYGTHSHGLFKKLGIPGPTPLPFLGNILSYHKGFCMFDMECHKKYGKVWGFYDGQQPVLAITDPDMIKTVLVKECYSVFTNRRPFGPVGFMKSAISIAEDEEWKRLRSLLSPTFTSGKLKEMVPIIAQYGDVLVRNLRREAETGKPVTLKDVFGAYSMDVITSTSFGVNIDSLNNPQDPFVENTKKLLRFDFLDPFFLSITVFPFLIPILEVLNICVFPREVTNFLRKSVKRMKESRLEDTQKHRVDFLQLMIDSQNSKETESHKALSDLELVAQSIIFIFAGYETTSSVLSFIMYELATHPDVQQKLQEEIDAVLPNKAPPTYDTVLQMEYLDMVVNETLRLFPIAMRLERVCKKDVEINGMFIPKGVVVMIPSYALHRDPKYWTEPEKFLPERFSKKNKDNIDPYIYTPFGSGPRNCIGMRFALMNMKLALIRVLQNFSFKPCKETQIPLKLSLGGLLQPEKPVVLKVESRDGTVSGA

CYP2C9 = CYP2C9 (Homo sapiens, UniProt P11712); conditions: recombinant enzymes; ref Kent et al., (2002); cited from earlier work
CYP2C9, sequence (P11712 whole entry): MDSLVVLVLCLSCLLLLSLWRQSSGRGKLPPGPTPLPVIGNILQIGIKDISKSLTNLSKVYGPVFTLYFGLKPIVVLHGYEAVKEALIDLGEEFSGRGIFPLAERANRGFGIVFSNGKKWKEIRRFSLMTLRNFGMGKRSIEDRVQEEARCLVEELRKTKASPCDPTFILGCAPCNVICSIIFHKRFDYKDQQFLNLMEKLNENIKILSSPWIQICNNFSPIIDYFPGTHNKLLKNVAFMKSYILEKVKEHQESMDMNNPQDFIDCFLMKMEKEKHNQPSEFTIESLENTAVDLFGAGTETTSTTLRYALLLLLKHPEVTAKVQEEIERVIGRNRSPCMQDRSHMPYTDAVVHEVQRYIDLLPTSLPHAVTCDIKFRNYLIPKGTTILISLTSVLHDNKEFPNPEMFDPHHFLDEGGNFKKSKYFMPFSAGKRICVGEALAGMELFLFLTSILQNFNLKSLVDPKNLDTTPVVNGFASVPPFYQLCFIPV

CYP2B6 [4] = biological target: T1, CYP2B6; conditions: recombinant enzymes; ref Kent et al., (2002); cited from earlier work
CYP3A4 [5] = biological target: T2, CYP3A4

inhibition of CYP2B6 at 10 µM, in words (CYP2B6 [1])	inhibition at 10 min, 10 µM [2]	mode of CYP3A4 inhibition, in words (CYP3A4 [5])	Compound	inhibition of any cytochrome P450 enzyme, in words (cytochrome P450 enzymes)	other results
			isoliquiritin apioside	did not inhibit	
			liquiritin apioside	did not inhibit	
inhibited	> 50%		COc1c(CC=C(C)C)c(O)cc2oc(=O)c(-c3ccc(O)cc3O)cc12 [Glycycoumarin, glycycoumarin]		inhibition of CYP2D6 at 10 µM, in words (CYP2D6): did not observe significant inhibition; inhibition of CYP2C at 10 µM, in words (CYP2C): inhibited
		competitively inhibited	O=C(/C=C/c1ccc(O)cc1)c1ccc(O)cc1O [Isoliquiritigenin, isoliquiritigenin]		
	> 50%		CC1(C)[C@@H](O)CC[C@]2(C)[C@H]3C(=O)C=C4[C@@H]5C[C@@](C)(C(=O)O)CC[C@]5(C)CC[C@@]4(C)[C@]3(C)CC[C@@H]12 [18β-glycyrrhetinic acid]		
inhibited	> 50%	competitively inhibited	COc1c(CC=C(C)C)c(O)cc2c1C[C@H](c1ccc(O)c(CC=C(C)C)c1O)CO2 [Licoricidin, licoricidin]		
			O=C(/C=C/c1ccc(O[C@@H]2O[C@H](CO)[C@@H](O)[C@H](O)[C@H]2O)cc1)c1ccc(O)cc1O [Isoliquiritin, isoliquiritin]	did not inhibit	

Compound	inhibition of CYP2B6 at 10 µM, in words (CYP2B6 [1])	inhibition at 10 min, 10 µM [2]	mode of CYP3A4 inhibition, in words (CYP3A4 [5])	inhibition of any cytochrome P450 enzyme, in words (cytochrome P450 enzymes)	other results
CC1(C)C=Cc2c(ccc3c2OC[C@@H](c2ccc(O)cc2O)C3)O1 [Glabridin, glabridin]	not inhibition	> 50%	competitively inhibited		inhibition of CYP3A4, in words (CYP3A4 [3]): irreversibly inhibited; inhibition of CYP2C9, in words (CYP2C9): reversibly inhibited; inhibition of CYP2B6, in words (CYP2B6 [4]): irreversibly inhibited
